From publication PMC6943437, “Coupling the Antimalarial Cell Penetrating Peptide TP10 to Classical Antimalarial Drugs Primaquine and Chloroquine Produces Strongly Hemolytic Conjugates” (Molecules, 2019)
Values joined by “and” are separate entries in the source; they are usually repeats but may differ in a detail not shown here. Identical values can stand only once. Like-named read-outs stand apart in the source and are kept apart here.

Columns and labels:
[1] = In vitro hemolytic activity on Plasmodium-infected erythrocyte cultures; assay type: cell-based; settings: cultures with 3% PiRBC, dash with footnote c = hemolysis not detected, read-out: % hemolysis at 10 µM ± SD (n = 3), PiRBC
Method: (§1) For positive and negative controls, 1% Triton X-100 and PBS were added, respectively. After this period, the plates were centrifuged and supernatants transferred to another plate. Supernatant absorbance at 450 nm was assessed in a multi-mode microplate reader (Triad, Dynex Technologies, Chantilly, VA, USA) and values were treated using the following equation (1):(1) % Hemolysis=Abs−Abs(negative control)/Abs(positive control)−Abs(negative control)

[2] = In vitro hemolytic activity on healthy erythrocytes; assay type: cell-based; settings: healthy erythrocytes (hRBC); 10 µM, 1 h, hRBC only; dash with footnote c = hemolysis not detected; read-out: % hemolysis at 10 µM ± SD (n = 3), hRBC
Method: as §1

P. falciparum 3D7 [3] = assay type: cell-based; settings: P. falciparum 3D7 (CQ-sensitive), 48 h; read-out: IC50 ± SD (n = 3)
Method: These second-generation conjugates (synthesis routes depicted in Scheme 2; Scheme 3) were evaluated in vitro, alongside the commercial reference drug, CQ (1), their parent building blocks, TP10 and Cq (4), and first-generation conjugate 5a, regarding their ability to inhibit growth of blood-stage parasites of the CQ-sensitive P. falciparum 3D7 strain (Table 3). The primaquine analogues of Cq conjugates 5a and 14, respectively, PQ-C4-TP10 (3a) and TP10-S-S-PQ (Figure 2, 14′), were also included for comparison; the synthesis of these conjugates, 3a and 14′, has been reported elsewhere. Of note, substantial hemolysis was detected upon erythrocyte exposure to some of the test conjugates, particularly at the higher concentrations tested. In view of this, emolysis assays were also conducted on cultures of both hRBC and PiRBC (Table 3).
P. falciparum 3D7 strain (chloroquine and mefloquine susceptible) was continuously cultured as previously described. Parasitemia was monitored daily by microscopic examination of Giemsa (MERCK, Sigma-Aldrich) stained thin blood smears.
Synchronized ring-stage P. falciparum (3% hematocrit, 1% parasitemia) were incubated in a microtiter plate for 48 h in the presence of two-fold serial dilutions of TP10 and derived conjugates 11–15, in the 10–10000 nM concentration range. Cultures incubated with three-fold serial dilutions of chloroquine bisphosphate, and also of its analogue 4, in the 0.1–8000 nM concentration range, were included for comparison. Culture without test compounds was also added to the microtiter plate, as negative control. After incubation, 100 μL of a solution of SYBR Green (Thermo Fisher; SG; 0.001% v/v in PBS) was added to each well and plates incubated for another 60 min under standard culture conditions. Plates were then centrifuged at 2500 rpm for 2 min, the supernatant was discarded, and cells were re-suspended in 100 μL of PBS. Fluorescence was collected in a multi-mode microplate reader (Triad, Dynex Technologies) with excitation at 485 nm and emission at 535 nm. Fluorescence values were normalized (to take into account the normal growth of the parasite) and then plotted against logC. IC50 were determined using GraphPad Prism 6.

hRBC = assay: In vitro hemolytic activity on healthy erythrocytes; assay type: cell-based; settings: cultures of hRBC and PiRBC, summary of Table 3
Method: as §1

P. falciparum W2 [4] = assay type: cell-based; settings: P. falciparum W2 (CQ-resistant), 48 h, n = 3
Method: All conjugates and their respective parent CPP (Table 1), were screened in vitro for their antiplasmodial activity, using the CQ-resistant P. falciparum W2 strain. The primaquine analogue to 5a, i.e., conjugate 3 where the CPP is TP10, PQ-C4-TP10 (3a), was also included in the study for comparison.
Synchronized ring-stage P. falciparum parasites (W2 strain) were incubated with test compounds for 48 h in Roswell Park Memorial Institute (RPMI) 1640 medium containing 10% human serum or 0.5% Albumax serum substitute. Parasites were then fixed with 1% formaldehyde in phosphate-buffered saline (PBS), pH 7.4, for […] at RT and labeled with YOYO-1 (1 nM; molecular probes) in 0.1% Triton X-100 in PBS. Parasitemias were determined by flow cytometry, from dot plots (forward scatter versus fluorescence). For 50% inhibitory concentration (IC50) determinations, dose-response studies were performed, with the values normalized to percent control activity, and IC50s were calculated using GraphPad Prism, with data fitted by nonlinear regression.

P. falciparum W2 [5] = settings: cited from earlier work
P. falciparum 3D7 [6] = settings: cited from earlier work

With CC[C@H](C)[C@H](NC(=O)[C@H](CCCCN)NC(=O)[C@H](CCCCN)NC(=O)[C@H](C)NC(=O)[C@H](CC(C)C)NC(=O)[C@H](C)NC(=O)[C@H](C)NC(=O)[C@H](CC(C)C)NC(=O)[C@H](C)NC(=O)[C@H](CCCCN)NC(=O)[C@H](CC(C)C)NC(=O)[C@H](CC(N)=O)NC(=O)[C@@H](NC(=O)[C@H](CCCCN)NC(=O)CNC(=O)[C@H](CC(C)C)NC(=O)[C@H](CC(C)C)NC(=O)[C@H](Cc1ccc(O)cc1)NC(=O)CNC(=O)[C@H](C)NC(=O)CCCCCNC(=O)CCC(=O)NCCCCNc1ccnc2cc(Cl)ccc12)[C@@H](C)CC)C(=O)N[C@@H](CC(C)C)C(N)=O [compound 10] the hemolysis at 1 h, 10 µM [1] was 19 ± 1%, the hemolysis at 1 h, 10 µM [2] was 38 ± 2% and the IC50 (P. falciparum 3D7 [3]) was 800 ± 300 nM.

For CC[C@H](C)[C@H](NC(=O)[C@H](CCCCN)NC(=O)[C@H](CCCCN)NC(=O)[C@H](C)NC(=O)[C@H](CC(C)C)NC(=O)[C@H](C)NC(=O)[C@H](C)NC(=O)[C@H](CC(C)C)NC(=O)[C@H](C)NC(=O)[C@H](CCCCN)NC(=O)[C@H](CC(C)C)NC(=O)[C@H](CC(N)=O)NC(=O)[C@@H](NC(=O)[C@H](CCCCN)NC(=O)CNC(=O)[C@H](CC(C)C)NC(=O)[C@H](CC(C)C)NC(=O)[C@H](Cc1ccc(O)cc1)NC(=O)CNC(=O)[C@H](C)NC(=O)[C@@H](N)CSSC[C@H](N)C(=O)NCCCCNc1ccnc2cc(Cl)ccc12)[C@@H](C)CC)C(=O)N[C@@H](CC(C)C)C(N)=O [compound 12], the hemolysis at 1 h, 10 µM [1] was 2 ± 0.3%, the hemolysis at 1 h, 10 µM [2] was 8.5 ± 0.5% and the IC50 (P. falciparum 3D7 [3]) was 1000 ± 300 nM.

Compound CC[C@H](C)[C@H](NC(=O)[C@H](CCCCN)NC(=O)[C@H](CCCCN)NC(=O)[C@H](C)NC(=O)[C@H](CC(C)C)NC(=O)[C@H](C)NC(=O)[C@H](C)NC(=O)[C@H](CC(C)C)NC(=O)[C@H](C)NC(=O)[C@H](CCCCN)NC(=O)[C@H](CC(C)C)NC(=O)[C@H](CC(N)=O)NC(=O)[C@@H](NC(=O)[C@H](CCCCN)NC(=O)CNC(=O)[C@H](CC(C)C)NC(=O)[C@H](CC(C)C)NC(=O)[C@H](Cc1ccc(O)cc1)NC(=O)CNC(=O)[C@H](C)NC(=O)CCC(=O)NCCCCNc1ccnc2cc(Cl)ccc12)[C@@H](C)CC)C(=O)N[C@@H](CC(C)C)C(N)=O [5a] has a hemolysis at 1 h, 10 µM [1] of 6.5 ± 0.4%, a hemolysis at 1 h, 10 µM [2] of 23 ± 1% and an IC50 (P. falciparum 3D7 [3]) of 800 ± 100 nM.

CC[C@H](C)[C@H](NC(=O)[C@H](CCCCN)NC(=O)[C@H](CCCCN)NC(=O)[C@H](C)NC(=O)[C@H](CC(C)C)NC(=O)[C@H](C)NC(=O)[C@H](C)NC(=O)[C@H](CC(C)C)NC(=O)[C@H](C)NC(=O)[C@H](CCCCN)NC(=O)[C@H](CC(C)C)NC(=O)[C@H](CC(N)=O)NC(=O)[C@@H](NC(=O)[C@H](CCCCN)NC(=O)CNC(=O)[C@H](CC(C)C)NC(=O)[C@H](CC(C)C)NC(=O)[C@H](Cc1ccc(O)cc1)NC(=O)CNC(=O)[C@H](C)NC(=O)[C@@H](N)Cc1cn(CCCCCC(=O)NCCCCNc2ccnc3cc(Cl)ccc23)nn1)[C@@H](C)CC)C(=O)N[C@@H](CC(C)C)C(N)=O [compound 11] showed a hemolysis at 1 h, 10 µM [1] of 10.7 ± 0.1%, a hemolysis at 1 h, 10 µM [2] of 23 ± 1% and an IC50 (P. falciparum 3D7 [3]) of 1200 ± 200 nM.

CC[C@H](C)[C@H](NC(=O)[C@H](CCCCN)NC(=O)[C@H](CCCCN)NC(=O)[C@H](C)NC(=O)[C@H](CC(C)C)NC(=O)[C@H](C)NC(=O)[C@H](C)NC(=O)[C@H](CC(C)C)NC(=O)[C@H](C)NC(=O)[C@H](CCCCN)NC(=O)[C@H](CC(C)C)NC(=O)[C@H](CC(N)=O)NC(=O)[C@@H](NC(=O)[C@H](CCCCN)NC(=O)CNC(=O)[C@H](CC(C)C)NC(=O)[C@H](CC(C)C)NC(=O)[C@H](Cc1ccc(O)cc1)NC(=O)CNC(=O)[C@H](C)N)[C@@H](C)CC)C(=O)N[C@@H](CC(C)C)C(=O)N[C@@H](CSSC[C@H](N)C(=O)NCCCCNc1ccnc2cc(Cl)ccc12)C(N)=O [compound 14] gave a hemolysis at 1 h, 10 µM [1] of 7 ± 1%, a hemolysis at 1 h, 10 µM [2] of 18.2 ± 0.8% and an IC50 (P. falciparum 3D7 [3]) of 2300 ± 400 nM.

In the case of CC[C@H](C)[C@H](NC(=O)[C@H](CCCCN)NC(=O)[C@H](CCCCN)NC(=O)[C@H](C)NC(=O)[C@H](CC(C)C)NC(=O)[C@H](C)NC(=O)[C@H](C)NC(=O)[C@H](CC(C)C)NC(=O)[C@H](C)NC(=O)[C@H](CCCCN)NC(=O)[C@H](CC(C)C)NC(=O)[C@H](CC(N)=O)NC(=O)[C@@H](NC(=O)[C@H](CCCCN)NC(=O)CNC(=O)[C@H](CC(C)C)NC(=O)[C@H](CC(C)C)NC(=O)[C@H](Cc1ccc(O)cc1)NC(=O)CNC(=O)[C@H](C)NC(=O)CCC(=O)NCCCC(C)Nc1cc(OC)cc2cccnc12)[C@@H](C)CC)C(=O)N[C@@H](CC(C)C)C(N)=O (stereo partly drawn) [3a], the hemolysis at 1 h, 10 µM [1] is reported as 49 ± 7% and the hemolysis at 1 h, 10 µM [2] is reported as 89 ± 8%.

With “N-(7-Methylquinolin-4-yl)butane-1,4-diamine [compound 4]” the “hemolytic activity (in words)” value (hRBC) was “not hemolytic” and the IC50 (P. falciparum 3D7 [3]) was 70 ± 20 nM.

For CC[C@H](C)[C@H](NC(=O)[C@H](CCCCN)NC(=O)[C@H](CCCCN)NC(=O)[C@H](C)NC(=O)[C@H](CC(C)C)NC(=O)[C@H](C)NC(=O)[C@H](C)NC(=O)[C@H](CC(C)C)NC(=O)[C@H](C)NC(=O)[C@H](CCCCN)NC(=O)[C@H](CC(C)C)NC(=O)[C@H](CC(N)=O)NC(=O)[C@@H](NC(=O)[C@H](CCCCN)NC(=O)CNC(=O)[C@H](CC(C)C)NC(=O)[C@H](CC(C)C)NC(=O)[C@H](Cc1ccc(O)cc1)NC(=O)CNC(=O)[C@H](C)N)[C@@H](C)CC)C(=O)N[C@@H](CC(C)C)C(N)=O [TP10], the hemolysis at 1 h, 10 µM [1] was 3.4 ± 0.2%, the IC50 (P. falciparum W2 [4]) was 5530 nM and 5500 nM and the hemolysis at 1 h, 10 µM [2] was 3.7 ± 0.1%. For the same compound, the “hemolytic activity (in words)” value (hRBC) was “only slightly hemolytic” and the IC50 (P. falciparum 3D7 [3]) was 1900 ± 500 nM.

For CCN(CC)CCCC(C)Nc1ccnc2cc(Cl)ccc12 (stereo not drawn) [compound 1, chloroquine], the IC50 (P. falciparum W2 [5]) is given as 699 nM, the IC50 (P. falciparum 3D7 [6]) is given as 21 nM and the “hemolytic activity (in words)” value (hRBC) is given as “not hemolytic”.
